# Test system: collagen type I alpha I chain (COL1A1) gene, normal human dermal fibroblasts (NHDF)
# Experiment: Fold change in gene expression of COL1A1 in normal human dermal fibroblasts (qPCR, normalized to ACTB)
# Assay type: cell-based
# Settings: 48 hours, relative to blank control (1.0)
# Method: The normal human dermal fibroblasts (NHDF) (Biocell, Xi'an, China, Lot: Fb20081902) were incubated in medium together with or without actives for 48 hours. After incubation, the total RNA for each NHDF was extracted using RNAex Pro reagent (Accurate Biotechnology, Cat: AG21102) according to manufacturer's protocol.
# The extracted RNA was quantified using Nanodrop spectrometer (Thermo Fisher Scientific, Waltham, MA, US) and reverse transcribed to generate the template cDNA using the Evo M-MLV RT Premix for qPCR (Accurate Biotechnology, Cat: AG11706) according to manufacturer's protocol. Gene expression of COL1A1 gene was analyzed by polymerase chain reaction (PCR) using SYBR® Green Premix Pro Taq HS qPCR Kit (Accurate Biotechnology, AG11701). The actin beta (ACTB) gene was selected as the housekeeping gene and all data on relative expression of the target genes was normalized to ACTB gene. The fold changes in expression were calculated relative to the blank control (medium having no active).
Fold change of COL1A1 expression (1 μM of RP (group B)),Fold change of COL1A1 expression (10 μM of RP (group E)),Fold change of COL1A1 expression (5 μM of LCC (group D)),Fold change of COL1A1 expression (10 μM of LCC (group G)),Fold change of COL1A1 expression (50 μM of LCC (group A)),Compound
1.4 fold change,1.5 fold change,–,–,–,"CCC(=O)OC/C=C(C)/C=C/C=C(C)/C=C/C1=C(C)CCCC1(C)C [RP, Retinyl propionate]"
–,–,1.4 fold change,1.5 fold change,1.3 fold change,Lysine carboxymethyl cysteinate [LCC]
